Assay results as given in patent US20220395464A1, “ORALLY ADMINISTERED SOLID DOSAGE FORM DRUG” (ASCENTAWITS PHARMACEUTICALS, LTD., priority 2019, published 2022).
Values joined by “and” are separate entries in the source; they are usually repeats but may differ in a detail not shown here. Equal entries are not always repeated. Where two headings read alike, the source gives them in different places.

Tests used:
[1] = Pharmacokinetics after single intravenous drip infusion, plasma LC-MS/MS; assay type: in vivo, Philippine macaques; conditions: male, plasma, 0.58 mg/kg, plasma; for Tmax: read-out: Tmax, Mean
Protocol: AST-3424 and AST-3424-D6 (i.e. the compound of formula I) were administered to Philippine macaques by intravenous drip infusion, and blood samples were collected at different appointed times. LC-MS/MS was used to determine concentrations of the test substances in plasma of the Philippine macaques after administration, and relevant pharmacokinetic parameters were calculated.
Preparation method: 0.447 ml of AST-3424 (0.2 mg/ml) and 0.481 ml of AST-3424-D6 (0.2 mg/ml) were added into 104.272 ml of the dissolvent, respectively, and mixed for 5 minutes to obtain colorless and clarified solutions with pH 7.0.
The four male Philippine macaques were purchased from Guangxi Xiongsen Primate Development Experiment Co., Ltd. All Philippine macaques were healthy with qualified medical examination and no abnormality. Three of animals were used for the experiment, and one of them was used to prepare blank plasma.
About 0.8 ml of blood samples were collected through femoral vein and anticoagulated with heparin sodium. Appointed times of blood collection were before administration, 0.17, 0.25, 0.5, 0.75, 1, 2, and 4 hours after administration.
The blood samples were placed on ice after collection. Next, plasma samples were separated by centrifugation, and centrifugation conditions were 3500 rpm for 10 minutes at 4° C. Then, the collected plasma samples were stored at −80° C. until analysis. The plasma samples were analyzed by LC-MS/MS by an analysis department of an experimental institution. Besides, Lower limit of quantifications (LLOQ) of AST-3424 and AST-3424-D6 detection were 1 ng/ml. The accuracy of analysis results of an accompanying standard curve and a quality control samples all met the relevant requirements of biological analysis (the accuracy of the quality control samples exceeding 66.7% was between 85˜115%) in a process of the sample detection.
According to average blood concentration data of each group at each appointed time, the pharmacokinetic parameters of the compounds were respectively computed by a pharmacokinetic computing software, a non-compartmental model. In addition, the pharmacokinetic parameters were AUC0-t, AUC0-∞, MRT0-∞, Cmax, Tmax, t1/2, etc. In the case of the concentrations of the samples whose concentration being lower than a lower limit of quantification, the following schemes were used to compute the pharmacokinetic parameters. The samples sampled before reaching Cmax shall be computed as zero value, while the samples sampled after reaching Cmax shall be computed as non-quantifiable (marked as “BLQ”).
After a single intravenous infusion of the compounds AST-3424 and AST-3424-D6 was administered to the Philippine macaques, the whole blood samples of the corresponding animals were collected at the appointed times. Next, the whole blood samples were processed and biologically analyzed to obtain concentrations of the compounds in the plasma at the different appointed times. Results of the assay were listed in Table 14 below, and corresponding means of the plasma-drug concentration-time curves are shown in FIG. 3.
According to the plasma-drug concentration data of each drug group, the pharmacokinetic parameters of each compound group were computed using the non-compartmental model of the pharmacokinetic computing software. The pharmacokinetic

[2] = Stability in hepatomicrosome with NADPH (LC-MS/MS); assay type: in vitro ADME, human; conditions: for % Remaining: human hepatomicrosome 0.5 mg/ml, NADPH 2 mM, 37° C., Sample 1, Sample 2
Protocol: The compounds, hepatomicrosome and reduced coenzyme NADPH were mixed together. Besides, a final concentration of the hepatomicrosome was 0.5 mg/ml, and human, male and mixed types of the hepatomicrosome were purchased. A final concentration of the NADPH was 2 mM. Next, the preceding mixtures were incubated in buffer (100 mM KH2PO4—K2HPO4) at 37° C. for 0, 5, 15, 30, 45, and 60 minutes, respectively. At the appointed incubation time, the reaction was terminated by the addition of an internal standard solution. Finally, the samples were centrifuged and the supernatant was taken for detection by LC-MS/MS.
Through mass spectrometry analysis, a concentration of the compounds in each sample was expressed by a peak-area ratio (a ratio of the peak-area of the compound to a peak-area of the internal standard). Then, each remaining percentage of the compounds (% Remaining) at each appointed incubation time was calculated with a reference that 0 minute at each concentration of the compounds. In logarithm of the remaining percentage was fitted linearly with the appointed incubation times, and a half-life and an intrinsic clearance were calculated according to the following formulas.
The remaining percentage (% Remaining)=(a peak area ratio at a certain appointed time (PARappointed time)/a peak area ratio at 0 minute (PAR0-mm)×100 (PAR: peak area ratio)
The elimination rate constant (k)=a negative of a slope (-gradient)
In vitro clearance (CLint, in vitro) (ml/min/mg)=k/c (c: a concentration of hepatomicrosome in the incubation system)

[3] = Philippine macaque, intravenous, AST-3424 intravenous drip infusion 0.58 mg/kg, individual animals 101, 102, 103, read-out: Plasma-drug concentration
[4] = Philippine macaque, intravenous, AST-3424 intravenous drip infusion 0.58 mg/kg, read-out: Plasma-drug concentration, mean

## C[C@H](OP(=O)(N1CC1)N1CC1)c1ccc([N+](=O)[O-])c(Oc2cccc(C(=O)N(C)C)c2)c1 [AST-3424, (S)-1-(3-(3-N,N-Dimethylaminocarbonyl)phenoxy-4-nitrophenyl)-1-ethyl-N,N′-bis(ethylene) phosphoramidate]
[1]; Philippine macaque, cynomolgus monkey, iv, AST-3424 0.58 mg/kg single intravenous infusion
  Tmax: 18.6 min
[1]; Philippine macaque, cynomolgus monkey, iv, AST-3424 0.58 mg/kg single intravenous infusion, read-out: Vz, Mean
  Vd: 0.306 L/kg
[1]; [3]
  concentration at 0.17 hr: 638 ng/mL
  concentration at 0.25 h: 649 ng/mL
  concentration at 0.5 h: 677 ng/mL
  concentration at 0.75 h: 152 ng/mL
  concentration at 1 h: 57.3 ng/mL
[1]; [4]
  concentration at 0.17 hr: 708 ng/mL
  concentration at 0.25 h: 691 ng/mL
  concentration at 0.5 h: 695 ng/mL
  concentration at 0.75 h: 143 ng/mL
  concentration at 1 h: 46.6 ng/mL
[1]; Philippine macaque, intravenous, AST-3424 intravenous drip infusion 0.58 mg/kg, 2 hr, individual animals 101, 102, 103, LLOQ 1 ng/ml, read-out: Plasma-drug concentration
  concentration at 2 h: 1.29 ng/mL
[1]; Philippine macaque, intravenous, AST-3424 intravenous drip infusion 0.58 mg/kg, 2 hr, read-out: Plasma-drug concentration, mean
  concentration at 2 hr: 1.4 ng/mL
[1]; cynomolgus monkey, iv, AST-3424 0.58 mg/kg single intravenous infusion, individual animals 101, 102, 103, read-out: MRT(0−t)
  MRT last: 7.8 min
[1]; cynomolgus monkey, iv, AST-3424 0.58 mg/kg single intravenous infusion, individual animals 101, 102, 103, read-out: MRT(0−∞)
  MRT inf: 8.4 min
[1]; cynomolgus monkey, iv, AST-3424 0.58 mg/kg single intravenous infusion
  Tmax: 18.4 min
[1]; cynomolgus monkey, iv, AST-3424 0.58 mg/kg single intravenous infusion, read-out: Vss, Mean
  Vd: 0.226 L/kg
[2]; human hepatomicrosome
  Stability parameter k (elimination rate constant): 0.0606 min⁻¹
[2]; 0 minutes
  % Remaining: 101.36% and 98.64%
[2]; 5 minutes
  % Remaining: 77.67% and 80.00%
[2]; 15 minutes
  % Remaining: 45.83% and 47.38%
[2]; 30 minutes
  % Remaining: 17.86% and 16.93%
[2]; 45 minutes
  % Remaining: 6.52% and 6.95%
[2]; 60 minutes
  % Remaining: 2.64% and 2.68%
[2]; human hepatomicrosome, 0 minutes
  % Remaining, Average: 100.00%
[2]; human hepatomicrosome, 5 minutes
  % Remaining, Average: 78.83%
[2]; human hepatomicrosome, 15 minutes
  % Remaining, Average: 46.60%
[2]; human hepatomicrosome, 30 minutes
  % Remaining, Average: 17.40%
[2]; human hepatomicrosome, 45 minutes
  % Remaining, Average: 6.74%
[2]; human hepatomicrosome, 60 minutes
  % Remaining, Average: 2.66%
[2]; male, liver microsomes (hepatomicrosome), human hepatomicrosome, read-out: Stability parameter (t1/2)
  half-life: 11.4 min
